Where a name gives a salt, the structure may show the parent alone.
Experiments:
Cat L = Cat L (UniProt P07711); experiment: Cathepsin enzyme inhibition assay (fluorogenic peptide substrate Z-Val-Val-Arg-AMC), Cathepsin L; type: biochemical, human and mouse; settings: enzyme 1 nM, substrate 20 μM, pH 6.5; read-out: CatL IC50
Method in brief: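 Fluorogenic cleavage of Z-Val-Val-Arg-AMC (20 μM) by 1 nM Cat L was monitored at ex 360/em 465 nm for 20 min, the linear phase. The buffer was 100 mM potassium phosphate pH 6.5 with 5 mM EDTA and DTT. IC50 values were derived by standard methods, in μM.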

Cathepsin S = Cathepsin S (UniProt P25774); experiment: Cathepsin enzyme inhibition assay (fluorogenic peptide substrate Z-Val-Val-Arg-AMC), Cathepsin S; type: biochemical, human and mouse; settings: enzyme 1 nM, substrate 20 μM, pH 6.5; read-out: CatS IC50
Method in brief: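 Compounds were combined with 1 nM human or mouse enzyme, and substrate then started the reaction. The buffer was potassium phosphate (100 mM, pH 6.5) containing EDTA-Na 5 mM, Triton X-100 0.001% and […] 5 mM.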

IC50 (Cat L)	IC50 (Cathepsin S)	Compound
≥ 25000 nM	14 nM	N#CCNC(=O)[C@@H]1C[C@@H](S(=O)(=O)c2ccccc2)CN1C(=O)c1ccccc1 [Example 52, (2S,4R)-4-Benzenesulfonyl-1-benzoyl-pyrrolidine-2-carboxylic acid cyanomethyl-amide]
≥ 25000 nM	5.2 nM	N#CCNC(=O)[C@@H]1C[C@@H](S(=O)(=O)c2ccccc2)CN1C(=O)C1CCCCC1 [Example 53, (2S,4R)-4-Benzenesulfonyl-1-cyclohexanecarbonyl-pyrrolidine-2-carboxylic acid cyanomethyl-amide]
17000 nM	14.3 nM	N#CCNC(=O)[C@@H]1C[C@@H](S(=O)(=O)c2ccccc2Cl)CN1C(c1ccccc1)C(F)(F)F (stereo partly drawn) [Example 57, (2S,4R)-4-(2-Chloro-benzenesulfonyl)-1-(2,2,2-trifluoro-1-phenyl-ethyl)-pyrrolidine-2-carboxylic acid cyanomethyl-amide]
27400 nM	1.6 nM	N#CCNC(=O)[C@@H]1C[C@@H](S(=O)(=O)c2ccccc2Cl)CN1C(=O)c1ccccc1 [Example 58, (2S,4R)-1-Benzoyl-4-(2-chloro-benzenesulfonyl)-pyrrolidine-2-carboxylic acid cyanomethyl-amide]
12200 nM	1.8 nM	N#CCNC(=O)[C@@H]1C[C@@H](S(=O)(=O)c2ccccc2Cl)CN1C(=O)c1ccc(F)cc1 [Example 59, (2S,4R)-4-(2-Chloro-benzenesulfonyl)-1-(4-fluoro-benzoyl)-pyrrolidine-2-carboxylic acid cyanomethyl-amide]
12800 nM	0.5 nM	N#CCNC(=O)[C@@H]1C[C@@H](S(=O)(=O)c2ccccc2Cl)CN1C(=O)C1CCCCC1 [Example 60, (2S,4R)-4-(2-Chloro-benzenesulfonyl)-1-cyclohexanecarbonyl-pyrrolidine-2-carboxylic acid cyanomethyl-amide]
22500 nM	1.2 nM	CCC(=O)N1C[C@H](S(=O)(=O)c2ccccc2Cl)C[C@H]1C(=O)NCC#N [Example 61, (2S,4R)-4-(2-Chloro-benzenesulfonyl)-1-propionyl-pyrrolidine-2-carboxylic acid cyanomethyl-amide]
21000 nM	1.2 nM	COCC(=O)N1C[C@H](S(=O)(=O)c2ccccc2Cl)C[C@H]1C(=O)NCC#N [Example 62, (2S,4R)-4-(2-Chloro-benzenesulfonyl)-1-(2-methoxy-acetyl)-pyrrolidine-2-carboxylic acid cyanomethyl-amide]
≥ 25000 nM	100 nM	N#CCNC(=O)[C@@H]1C[C@@H](S(=O)(=O)c2ccccc2Cl)CN1C1COC1 [Example 63, (2S,4R)-4-(2-Chloro-benzenesulfonyl)-1-oxetan-3-yl-pyrrolidine-2-carboxylic acid cyanomethyl-amide]
≥ 25000 nM	109 nM	N#CCNC(=O)[C@@H]1C[C@@H](S(=O)(=O)c2ccccc2Cl)CN1C1CCOCC1 [Example 64, (2S,4R)-4-(2-Chloro-benzenesulfonyl)-1-(tetrahydro-pyran-4-yl)-pyrrolidine-2-carboxylic acid cyanomethyl-amide]
≥ 25000 nM	0.6 nM	Cc1ccc(C(=O)N2C[C@H](S(=O)(=O)c3ccccc3C(F)(F)F)C[C@H]2C(=O)NCC#N)cc1 [Example 66, (2S,4R)-1-(4-Methyl-benzoyl)-4-(2-trifluoromethyl-benzenesulfonyl)-pyrrolidine-2-carboxylic acid cyanomethyl-amide]
≥ 25000 nM	0.2 nM	N#CCNC(=O)[C@@H]1C[C@@H](S(=O)(=O)c2ccccc2C(F)(F)F)CN1C(=O)C1CCCCC1 [Example 67, (2S,4R)-1-Cyclohexanecarbonyl-4-(2-trifluoromethyl-benzenesulfonyl)-pyrrolidine-2-carboxylic acid cyanomethyl-amide]
≥ 25000 nM	0.3 nM	N#CCNC(=O)[C@@H]1C[C@@H](S(=O)(=O)c2ccccc2C(F)(F)F)CN1C(=O)C1CCOCC1 [Example 68, (2S,4R)-1-(Tetrahydro-pyran-4-carbonyl)-4-(2-trifluoromethyl-benzenesulfonyl)-pyrrolidine-2-carboxylic acid cyanomethyl-amide]
≥ 25000 nM	0.4 nM	N#CCNC(=O)[C@@H]1C[C@@H](S(=O)(=O)c2ccccc2C(F)(F)F)CN1C(=O)c1ccncc1 [Example 69, (2S,4R)-1-(Pyridine-4-carbonyl)-4-(2-trifluoromethyl-benzenesulfonyl)-pyrrolidine-2-carboxylic acid cyanomethyl-amide]
25200 nM	1.6 nM	CN1CCC(C(=O)N2C[C@H](S(=O)(=O)c3ccccc3C(F)(F)F)C[C@H]2C(=O)NCC#N)CC1 [Example 70, (2S,4R)-1-(1-Methyl-piperidine-4-carbonyl)-4-(2-trifluoromethyl-benzenesulfonyl)-pyrrolidine-2-carboxylic acid cyanomethyl-amide formiate]
≥ 25000 nM	0.5 nM	N#CCNC(=O)[C@@H]1C[C@@H](S(=O)(=O)c2ccccc2C(F)(F)F)CN1C(=O)c1ccccc1 [Example 71, (2S,4R)-1-Benzoyl-4-(2-trifluoromethyl-benzenesulfonyl)-pyrrolidine-2-carboxylic acid cyanomethyl-amide]
≥ 25000 nM	0.8 nM	N#CCNC(=O)[C@@H]1C[C@@H](S(=O)(=O)c2ccccc2C(F)(F)F)CN1C(=O)OC1CCCC1 [Example 72, (2S,4R)-2-(Cyanomethyl-carbamoyl)-4-(2-trifluoromethyl-benzenesulfonyl)-pyrrolidine-1-carboxylic acid Cyclopentyl Ester]

Continued, molecule first:

Compound	IC50 (Cat L)	IC50 (Cathepsin S)
Cc1cc(Cl)ccc1S(=O)(=O)[C@H]1CN[C@H](C(=O)NC2(C#N)CC2)C1 [Example 50, (2S,4R)-4-(4-Chloro-2-methyl-benzenesulfonyl)-pyrrolidine-2-carboxylic acid (1-cyano-cyclopropyl)-amide Hydrochloride]	8770 nM	4.4 nM
N#CC1(NC(=O)[C@@H]2C[C@@H](S(=O)(=O)c3cccc(Cl)c3Cl)CN2)CC1 [Example 51, (2S,4R)-4-(2,3-Dichloro-benzenesulfonyl)-pyrrolidine-2-carboxylic acid (1-cyano-cyclopropyl)-amide Hydrochloride]	≥ 25000 nM	26 nM
N#CCNC(=O)[C@@H]1C[C@@H](S(=O)(=O)c2ccccc2)CN1Cc1ccccc1 [Example 54, (2S,4R)-4-Benzenesulfonyl-1-benzyl-pyrrolidine-2-carboxylic acid cyanomethyl-amide]	5340 nM	210 nM
N#CCNC(=O)[C@@H]1C[C@@H](S(=O)(=O)c2ccccc2)CN1CC1CCCCC1 [Example 55, (2S,4R)-4-Benzenesulfonyl-1-cyclohexylmethyl-pyrrolidine-2-carboxylic acid cyanomethyl-amide]	≥ 25000 nM	14.8 nM
N#CCNC(=O)[C@@H]1C[C@@H](S(=O)(=O)c2ccccc2)CN1C(c1ccccc1)C(F)(F)F (stereo partly drawn) [Example 56, (2S,4R)-4-Benzenesulfonyl-1-(2,2,2-trifluoro-1-phenyl-ethyl)-pyrrolidine-2-carboxylic acid cyanomethyl-amide]	≥ 25000 nM	42.7 nM
N#CCNC(=O)[C@@H]1C[C@@H](S(=O)(=O)c2ccccc2C(F)(F)F)CN1C(=O)c1ccc(F)cc1 [Example 65, (2S,4R)-1-(4-Fluoro-benzoyl)-4-(2-trifluoromethyl-benzenesulfonyl)-pyrrolidine-2-carboxylic acid cyanomethyl-amide]	≥ 25000 nM	0.6 nM
N#CC1(NC(=O)[C@@H]2C[C@@H](S(=O)(=O)c3ccccc3)CN2C(=O)c2ccccc2)CC1 [Example 73, (2S,4R)-4-Benzenesulfonyl-1-benzoyl-pyrrolidine-2-carboxylic acid (1-cyano-cyclopropyl)-amide]	≥ 25000 nM	12.7 nM
N#CC1(NC(=O)[C@@H]2C[C@@H](S(=O)(=O)c3ccccc3)CN2C(=O)C2CCOCC2)CC1 [Example 74, (2S,4R)-4-Benzenesulfonyl-1-(tetrahydro-pyran-4-carbonyl)-pyrrolidine-2-carboxylic acid (1-cyano-cyclopropyl)-amide]	≥ 25000 nM	6.6 nM
N#CC1(NC(=O)[C@@H]2C[C@@H](S(=O)(=O)c3ccccc3Cl)CN2C(=O)c2ccccc2)CC1 [Example 75, (2S,4R)-1-Benzoyl-4-(2-chloro-benzenesulfonyl)-pyrrolidine-2-carboxylic acid (1-cyano-cyclopropyl)-amide]	6790 nM	0.8 nM
N#CC1(NC(=O)[C@@H]2C[C@@H](S(=O)(=O)c3ccccc3Cl)CN2C(=O)c2ccc(F)cc2)CC1 [Example 76, (2S,4R)-4-(2-Chloro-benzenesulfonyl)-1-(4-fluoro-benzoyl)-pyrrolidine-2-carboxylic acid (1-cyano-cyclopropyl)-amide]	8800 nM	1.4 nM
N#CC1(NC(=O)[C@@H]2C[C@@H](S(=O)(=O)c3ccccc3Cl)CN2C(=O)C2CCCCC2)CC1 [Example 77, (2S,4R)-4-(2-Chloro-benzenesulfonyl)-1-cyclohexanecarbonyl-pyrrolidine-2-carboxylic acid (1-cyano-cyclopropyl)-amide]	8250 nM	0.2 nM
N#CC1(NC(=O)[C@@H]2C[C@@H](S(=O)(=O)c3ccccc3Cl)CN2C=O)CC1 [Example 78, (2S,4R)-4-(2-Chloro-benzenesulfonyl)-1-formyl-pyrrolidine-2-carboxylic acid (1-cyano-cyclopropyl)-amide]	≥ 25000 nM	18.5 nM

— patent US8163793B2, “Proline derivatives” (Hoffman-La Roche Inc., priority 2009, dated 2012)
